Test results from patent US20060014704A1, “Compounds and their preparation for the treatment of Alzheimer's disease by inhibiting beta-amyloid peptide production” (priority 2004, published 2006).
Entries after “also recorded” stand apart in the source; their conditions may differ.

Experiments:
[1] = system: Aβ40 and Aβ42 production, CHO cells stably transfected with human APP695; experiment: Secreted Aβ40/Aβ42 ELISA in CHO cells expressing human APP (CHO-APP cells); type: cell-based, Chinese hamster; parameters: key to Aβ42-lowering activity: Aβ42-lowering activity (“Yes”); no profound effects (“No”); non-determined (“ND”); Ginsenosides that affected cell viability are indicated as “Cytotoxic.”
Method: The CHO cells were treated with the indicated compounds (at 50 μg/ml) for 8 hrs. Aβ42 levels in the medium were measured by ELISA and normalized to intracellular full-length APP.
The potential effects of ginsenosides and their analogues in treating AD were examined. First, a number of ginsenosides were screened based on their effects on Aβ generation. The effects of various ginsenosides on Aβ (e.g., Aβ40 and Aβ42) production was initially accessed by incubating the Chinese hamster ovary (CHO) cells expressing human APP(CHO-APP cells) with each ginsenoside purified from unprocessed ginseng (known as “white ginseng”). These representative ginsenosides included Rb1, Rb2, Rc, Rd, Re, Re, Rg1 and Rg2 and differ in their side chains and sugar moieties.
After 8 hours of incubation, the media were collected and the levels of secreted Aβ40 and Aβ42 were determined by ELISA.

[2] = system: Aβ42 production in mammalian cells; conditions: Tae-Wan Kim et al., patent application pending; cited from earlier work
[3] = system: Aβ40 and Aβ42 production, CHO-APP/PS1 cells; experiment: Secreted Aβ ELISA in CHO-APP/PS1 cells (wild-type PS1); type: cell-based, Chinese hamster
Method: (§1) The effects of Rg5 on the Aβ42 generation were much smaller as compared to Rgk351 and Rk1.
(§2) FIG. 10 depicts the effects of native ginsenosides on Aβ42 production. CHO cells stably transfected with human APP695 together with either wild-type (A, CHO-APP/PS1 cells) or ΔE9 FAD mutant (B, CHO-APP/ΔE9PS1 cells) forms of PS1 were used. Cells were treated with the indicated compounds (at 50 μM) for 8 hrs. Levels of secreted Aβ40 and Aβ42 in the medium were determined by ELISA and normalized to intracellular full-length APP. In CHO-APP/PS1 cells, average Aβ amounts in control samples were 320 pM for Aβ40 and 79 pM for Aβ42. The relative levels of Aβ and Aβ42 were normalized to values obtained from non-treated and vehicle-treated cells and are shown as % to control+s.d.). One of three representative experiments are shown.
(§3) CHO-APP/PS1 (A) and CHO-APP/ΔE9PS1 (B) cells were treated with the indicated compounds at 50 μM for 8 hrs and the levels of secreted Aβ40 and Aβ42 were determined as described in FIG. 1. […] The PS1-ΔE9 FAD mutation diminished the Aβ42 response to Rk1 treatment (B).

[4] = system: Aβ42 production, CHO-APP/ΔE9PS1 cells; experiment: Secreted Aβ ELISA in CHO cells co-expressing human APP and FAD mutant PS1 (ΔE9, L286V); type: cell-based, Chinese hamster; conditions: 50 μM, 8 hrs, FIG. 11B vs 11A
Method: as §1, §2, §3

[5] = system: full-length APP and APP C-terminal fragments, CHO-APP cells; experiment: Western blot analysis of APP processing in CHO-APP cells; type: cell-based, Chinese hamster; conditions: cell lysates
Excerpt: (§4) FIG. 13. depicts an analysis of APP processing after Rk1 treatment. Steady-state levels of full-length APP and APP C-terminal fragments (APP-CTFs) were examined by Western blot analysis using anti-R1 antibody. […] Correlated Aβ42 levels for each sample are shown in the bottom panel.

[6] = system: full-length APP and APP C-terminal fragments, Neuro2a-APPsw cells; experiment: Western blot analysis of APP processing in neuro2a cells expressing APPsw; type: cell-based, mouse; conditions: neuro2a cells expressing APPsw
Excerpt: as §4

SMILES: CC(C)=CC/C=C(\C)[C@H]1CC[C@]2(C)[C@@H]1[C@H](O)C[C@@H]1[C@@]3(C)CC[C@H](O[C@@H]4O[C@H](CO)[C@@H](O)[C@H](O)[C@H]4O[C@@H]4O[C@H](CO)[C@@H](O)[C@H](O)[C@H]4O)C(C)(C)[C@@H]3CC[C@]12C [Rg5]
- generation of Aβ42 (Aβ42 levels in the medium, ELISA, normalized to intracellular full-length APP) ([1]; 50 μg/ml, 8 hrs, FIG. 4): reduce the generation of Aβ42
- Aβ42-lowering effect compared with other agents ([1]; CHO-APP cells): much smaller
- preference for Aβ42 vs. Aβ40 in cell-based assay ([1]; FIG. 6 / FIG. 12B): preferentially reduced Aβ42 (vs. Aβ40)
- Aβ42 in the medium, dose-response ([1]; dose-dependent, FIG. 5 / FIG. 12A): reduced Aβ42; also recorded: lower Aβ42 in a dose-dependent manner
- production of Aβ42 in cells ([1]; general statement): lower the production of Aβ42
- Aβ42 production ([1]; overnight treatment, FIG. 12B): reduce Aβ42 production
- Aβ42-lowering activity ([1]; summary of Tables 1-3): Yes
- production of Aβ42 in mammalian cells [2]: lower the production of Aβ42
- potency of Aβ42-reducing activity (rank) ([3]; 50 μM, 8 hrs, FIG. 11): Rk1>/=(20S)Rg3>Rg5>(20R)Rg3; also recorded: less effective
- secretion of Aβ42 ([3]; heat-processing derived ginsenosides, 50 μM, 8 hrs, FIG. 11): selectively lowered the secretion of Aβ42
- effects on Aβ42 generation compared to Rgk351 and Rk1 ([3]; wild-type or FAD mutant presenilin 1, FIG. 8): much smaller
- Aβ42-lowering response in PS1 ΔE9 FAD mutant cells compared to PS1 wild-type cells [4]: diminished
- APP C-terminal fragments (γ-secretase substrates), steady-state levels [5]: increased accumulation
- full-length APP levels [5]: not affected
- APP C-terminal fragments, steady-state levels [6]: increased accumulation
